Laboratory results taken from ChEMBL document CHEMBL1201862, “PubChem BioAssay data set” (2004).
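Cells were grown in 96-well plates and exposed to each compound for 48 hours at five concentrations; endpoints were interpolated linearly between bracketing concentrations, or set to the highest concentration if not reached. GI50 is the concentration that inhibits growth by half.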 The source made the active and inactive calls. Rule as the data show it: active = GI50 up to about 1.1 µM and inactive = higher.

Key:
Test in all cases: NCI tumour cell line growth inhibition, 48 h
A498 = tested on: A498
CAKI-1 = tested on: CAKI-1
EKVX = tested on: EKVX
HOP-62 = tested on: HOP-62
IGROV-1 = tested on: IGROV-1
K562 = tested on: K562
MDA-MB-435 = tested on: MDA-MB-435
RPMI-8226 = tested on: RPMI-8226
RXF 393 = tested on: RXF 393
SF-268 = tested on: SF-268
SK-OV-3 = tested on: SK-OV-3
SR = tested on: SR
SW-620 = tested on: SW-620
T47D = tested on: T47D
UACC-62 = tested on: UACC-62
UO-31 = tested on: UO-31
A549 = tested on: A549
OVCAR-3 = tested on: OVCAR-3
OVCAR-5 = tested on: OVCAR-5

Measured: GI50

CC(=O)OC1=C(CC(C)(C)C)C(=O)c2ccccc2C1=O
inactive: A498 13.5 µM | CAKI-1 48.4 µM | EKVX 37 µM | HOP-62 35.2 µM | IGROV-1 34.2 µM | K562 18.5 µM | MDA-MB-435 21.7 µM | RPMI-8226 17.1 µM | RXF 393 28.3 µM | SF-268 21.6 µM | SK-OV-3 25.3 µM | SR 20.5 µM | SW-620 33 µM | T47D 44.2 µM | UACC-62 32.1 µM | UO-31 33.4 µM

N#Cc1c(N)c(C#N)c2c(c1-c1ccc(Cl)cc1)COc1ccccc1-2
inactive: A498 18.2 µM | A549 14.5 µM | EKVX 9.14 µM | HOP-62 14.9 µM | IGROV-1 20.4 µM | K562 16.5 µM | MDA-MB-435 31.7 µM | OVCAR-3 13.7 µM | OVCAR-5 24.9 µM | RPMI-8226 3.27 µM | RXF 393 15.4 µM | SF-268 29.4 µM | SK-OV-3 18.4 µM | SR 11.4 µM | SW-620 32.6 µM | T47D 18.8 µM | UACC-62 30.1 µM | UO-31 4.04 µM

COc1cc(/C=C/C(=N\NS(=O)(=O)c2ccc(C)cc2)c2sc(NNC(C)=O)nc2C)ccc1O
inactive: A498 > 100 µM | A549 > 100 µM | CAKI-1 > 100 µM | EKVX > 100 µM | HOP-62 > 100 µM | IGROV-1 > 100 µM | MDA-MB-435 > 100 µM | OVCAR-3 > 100 µM | OVCAR-5 > 100 µM | RPMI-8226 > 100 µM | RXF 393 > 100 µM | SF-268 > 100 µM | SK-OV-3 > 100 µM | SR > 100 µM | SW-620 > 100 µM | T47D > 100 µM | UACC-62 > 100 µM | UO-31 > 100 µM

Cc1cc2[nH]c3[nH]c(=O)[nH]c(=O)c3c2cc1C
inactive: A498 > 100 µM | A549 > 100 µM | CAKI-1 > 100 µM | EKVX 20.3 µM | HOP-62 29 µM | IGROV-1 > 100 µM | MDA-MB-435 > 100 µM | OVCAR-5 > 100 µM | RPMI-8226 > 100 µM | RXF 393 > 100 µM | SF-268 > 100 µM | SK-OV-3 > 100 µM | SR 27.1 µM | SW-620 > 100 µM | T47D > 100 µM | UACC-62 97.1 µM | UO-31 > 100 µM

N#CC(NNC(=O)c1c(Cl)c(Cl)c(Cl)c(Cl)c1-c1nc2cc(C(=O)c3ccccc3)ccc2[nH]1)c1cccc(Oc2ccccc2)c1 (stereo unspecified)
inactive: A498 20.8 µM | A549 30.9 µM | CAKI-1 35.2 µM | EKVX 15.8 µM | HOP-62 25.8 µM | IGROV-1 26.7 µM | K562 27.5 µM | MDA-MB-435 16.6 µM | OVCAR-3 28.1 µM | OVCAR-5 28.7 µM | RPMI-8226 34.8 µM | RXF 393 16.9 µM | SK-OV-3 33.8 µM | SR 20.6 µM | SW-620 27.7 µM | T47D 18.9 µM | UO-31 30.8 µM

CCOC(=O)C1(C(=O)OCC)Nc2cccnc2N(C)N1
inactive: A498 17.5 µM | A549 96.8 µM | CAKI-1 19 µM | HOP-62 35.5 µM | IGROV-1 22.8 µM | K562 22.8 µM | MDA-MB-435 18.9 µM | OVCAR-3 20.5 µM | RPMI-8226 16.2 µM | RXF 393 18 µM | SF-268 40.6 µM | SK-OV-3 > 100 µM | SR 37.1 µM | SW-620 11.1 µM | T47D 20.1 µM | UACC-62 18 µM | UO-31 17.4 µM

COc1cc(/C=C2\N=C(c3ccccc3)N(/N=C3\C(=O)Nc4ccccc43)C2=O)cc(OC)c1OC
inactive: A498 > 100 µM | A549 > 100 µM | CAKI-1 > 100 µM | EKVX 46.2 µM | HOP-62 > 100 µM | IGROV-1 > 100 µM | K562 > 100 µM | MDA-MB-435 39.1 µM | OVCAR-3 24.9 µM | OVCAR-5 > 100 µM | RXF 393 > 100 µM | SF-268 66.4 µM | SK-OV-3 > 100 µM | SR 38.6 µM | SW-620 > 100 µM | T47D > 100 µM | UACC-62 > 100 µM | UO-31 > 100 µM

O=C(CC(O)(C(F)(F)F)C(F)(F)Cl)CC(O)(C(F)(F)F)C(F)(F)Cl (stereo unspecified)
inactive: A498 2.29 µM | A549 2.37 µM | CAKI-1 2.74 µM | EKVX 2.37 µM | HOP-62 2.09 µM | IGROV-1 2.47 µM | K562 2.76 µM | MDA-MB-435 2.19 µM | OVCAR-3 1.62 µM | RPMI-8226 7.1 µM | RXF 393 2.23 µM | SF-268 2.31 µM | SK-OV-3 1.4 µM | SR > 10 µM | SW-620 3.86 µM | T47D 1.49 µM | UACC-62 1.65 µM | UO-31 1.44 µM

NC(=O)CSc1c2cc(O)ccc2nc2ccc(O)cc12
inactive: A498 > 10 µM | A549 > 10 µM | CAKI-1 > 10 µM | EKVX > 10 µM | HOP-62 > 10 µM | IGROV-1 > 10 µM | K562 > 10 µM | MDA-MB-435 > 10 µM | OVCAR-3 > 10 µM | OVCAR-5 > 10 µM | RPMI-8226 > 10 µM | RXF 393 > 10 µM | SF-268 > 10 µM | SK-OV-3 > 10 µM | SR > 10 µM | SW-620 > 10 µM | T47D > 10 µM | UACC-62 > 10 µM

O=c1[nH]cnc2c1ncn2[C@@H]1C[C@H]1CO
inactive: A498 > 100 µM | A549 > 100 µM | CAKI-1 > 100 µM | EKVX > 100 µM | HOP-62 > 100 µM | IGROV-1 > 100 µM | K562 > 100 µM | MDA-MB-435 > 100 µM | OVCAR-5 > 100 µM | RPMI-8226 > 100 µM | RXF 393 > 100 µM | SF-268 > 100 µM | SR > 100 µM | SW-620 > 100 µM | T47D > 100 µM | UACC-62 > 100 µM | UO-31 > 100 µM

C=C(C)[C@H]1C2=CC(C)=C(O2)[C@@H](O)[C@H](C(=C)C)CCC2=C[C@H]1OC2=O [KALLOLIDE A]
inactive: A498 > 100 µM | A549 > 100 µM | CAKI-1 > 100 µM | EKVX > 100 µM | IGROV-1 > 100 µM | K562 > 100 µM | MDA-MB-435 > 100 µM | OVCAR-3 > 100 µM | OVCAR-5 > 100 µM | RPMI-8226 > 100 µM | RXF 393 > 100 µM | SF-268 > 100 µM | SR 99.5 µM | SW-620 > 100 µM | T47D > 100 µM | UACC-62 > 100 µM | UO-31 > 100 µM
